12 sequences from US10906938B2, “Cell epitopes and combination of cell epitopes for use in the immunotherapy of myeloma and other cancers” (Immatics Biotechnologies GmbH, priority 2015, dated 2021) can be followed below.

The test system of the assay is MM.1S cells. Description: HLA class I ligand presentation upon carfilzomib treatment on MM.1S cells (LC-MS/MS). The assay is classed as cell-based, human. The arrangement: key to modulation upon carfilzomib-treatment 24 #1 / modulation upon carfilzomib-treatment 24 #2 / modulation upon carfilzomib-treatment 24 #3 / modulation upon carfilzomib-treatment 48 #1 / modulation upon carfilzomib-treatment 48 #2 / modulation upon carfilzomib-treatment 48 #3: −1: significantly down-modulated; 0: not signifcant/not detected; 1: significantly up-modulated. The following applies: MM.1S cells; for modulation upon carfilzomib-treatment 24 #1 / modulation upon carfilzomib-treatment 24 #2 / modulation upon carfilzomib-treatment 24 #3: 24 h after carfilzomib treatment (100 nM, 1 h); for modulation upon carfilzomib-treatment 24 #1 / modulation upon carfilzomib-treatment 48 #1: biological replicate #1; for modulation upon carfilzomib-treatment 24 #1 / modulation upon carfilzomib-treatment 24 #2 / modulation upon carfilzomib-treatment 24 #3 / modulation upon carfilzomib-treatment 48 #1 / modulation upon carfilzomib-treatment 48 #2 / modulation upon carfilzomib-treatment 48 #3: vs mock-treated controls; for modulation upon carfilzomib-treatment 24 #2 / modulation upon carfilzomib-treatment 48 #2: biological replicate #2; for modulation upon carfilzomib-treatment 24 #3 / modulation upon carfilzomib-treatment 48 #3: biological replicate #3; for modulation upon carfilzomib-treatment 48 #1 / modulation upon carfilzomib-treatment 48 #2 / modulation upon carfilzomib-treatment 48 #3: 48 h after carfilzomib treatment (100 nM, 1 h). On the procedure:
HLA class I and II molecules were isolated using standard immunoaffinity purification as described using the pan-HLA class I specific mAb W6/32, the pan-HLA class II specific mAb T039 and the HLA-DR specific mAB L243 (produced in house).
HLA ligand extracts were analyzed in 5 technical replicates as described previously. In brief, peptide samples were separated by nanoflow HPLC (RSLCnano, ThermoFisher) using a 50 μm×25 cm PepMap RSLC column (Thermo Fisher) and a gradient ranging from 2.4 to 32.0% acetonitrile over the course of 90 min. Eluting peptides were analyzed in an online coupled LTQ Orbitrap XL mass spectrometer (Thermo Fisher) using a top 5 CID (collision induced dissociation) fragmentation method.
Data processing was performed as described previously. In brief, the Mascot search engine (Mascot 2.2.04; Matrix Science, London, UK) was implemented to search the human proteome as comprised in the Swiss-Prot database (20,279 reviewed protein sequences, September 2013) without enzymatic restriction. Potential mutated HLA ligands were searched implementing a database containing the human proteome concatenated with proteins containing single amino acid variants (SAVs) listed in the COSMIC database (http://cancer.sanger.ac.uk/cosmic/). Only recurrent SAVs described in 2 or more samples of hematological origin were included. Oxidized methionine was allowed as a dynamic modification. The false discovery rate was estimated using the Percolator algorithm and set to 5%. Peptide lengths were limited to 8-12 amino acids for HLA class I and 12-25 amino acids for HLA class II. Protein inference was disabled, allowing for multiple protein annotations of peptides. HLA annotation was performed using SYFPEITHI [46] or an extended in-house database. Experimental validation of peptide identifications and HLA annotations was performed by mass spectrometric and functional characterization of synthetic peptides for a subset of peptides.
The inventors quantitatively assessed HLA class I ligand presentation during proteasome inhibitor therapy. Observed was a considerable plasticity of the HLA class I ligandome after treatment with carfilzomib with 17.9±1.1% of MM.1S ligands and 11.2±0.7% of U266 ligands (mean of three biological replicates ±s.d.) showing significant modulation (fold-change ≥4, Po0.01 after Benjamini-Hochberg correction) at t24 h compared with mock-treated controls. Briefly, Cultured MCLs (MM.1S and U266) and primary myeloma samples were incubated with carfilzomib (100 nM, Kyprolis®, available, e.g., from Onyx Pharmaceuticals, Inc.) as an example for a proteasome inhibitor for a 1-h period, followed by three washes in PBS (Gibco) and recultured for additional 24 or 48 h. Controls were incubated with vehicle control (glucose 5%) for 1 h, followed by identical washing and incubation for 24 or 48 h. Experiments were conducted in three biological replicates where indicated.

[1] abbreviates: 24 h after carfilzomib treatment.

Consider VPLTRVSGGAA, for which the “modulation upon carfilzomib-treatment 24 #1” value was 1, the “modulation upon carfilzomib-treatment 24 #2” value is 1, the “modulation upon carfilzomib-treatment 24 #3” value was 1 and the “modulation upon carfilzomib-treatment 48 #1” value turned out to be 1. Moreover, the “modulation upon carfilzomib-treatment 48 #2” value amounted to 1 and the “modulation upon carfilzomib-treatment 48 #3” value worked out at 1.
In the case of SEFDFFERL, the “modulation upon carfilzomib-treatment 24 #1” value was 0, the “modulation upon carfilzomib-treatment 24 #2” value was found to be 0, the “modulation upon carfilzomib-treatment 24 #3” value worked out at 0 and the “modulation upon carfilzomib-treatment 48 #1” value came out at 0. In addition, the “modulation upon carfilzomib-treatment 48 #2” value was found to be 0 and the “modulation upon carfilzomib-treatment 48 #3” value is given as −1.
Regarding TASPLVKSV, the “modulation upon carfilzomib-treatment 24 #1” value was 0, the “modulation upon carfilzomib-treatment 24 #2” value was 0, the “modulation upon carfilzomib-treatment 24 #3” value was 0 and the “modulation upon carfilzomib-treatment 48 #1” value amounted to 0. Further, the “modulation upon carfilzomib-treatment 48 #2” value came out at 1 and the “modulation upon carfilzomib-treatment 48 #3” value turned out to be 0.
As to RYSTQIHSF, the “modulation upon carfilzomib-treatment 24 #1” value is 0, the “modulation upon carfilzomib-treatment 24 #2” value was determined as 0, the “modulation upon carfilzomib-treatment 24 #3” value was 0 and the “modulation upon carfilzomib-treatment 48 #1” value turned out to be 0. Besides, the “modulation upon carfilzomib-treatment 48 #2” value turned out to be 0 and the “modulation upon carfilzomib-treatment 48 #3” value was 0.
For the sequence RYFKGPELL, the “modulation upon carfilzomib-treatment 24 #1” value was determined as 0, the “modulation upon carfilzomib-treatment 24 #2” value was 0, the “modulation upon carfilzomib-treatment 24 #3” value stood at 0 and the “modulation upon carfilzomib-treatment 48 #1” value is given as 0. Besides, the “modulation upon carfilzomib-treatment 48 #2” value is recorded as 0 and the “modulation upon carfilzomib-treatment 48 #3” value is on record as 0.
On to SPALPGLKL, for which the “modulation upon carfilzomib-treatment 24 #1” value was 0, the “modulation upon carfilzomib-treatment 24 #2” value was 0, the “modulation upon carfilzomib-treatment 24 #3” value came to 0 and the “modulation upon carfilzomib-treatment 48 #1” value came to 0. The “modulation upon carfilzomib-treatment 48 #2” value is given as 0 and the “modulation upon carfilzomib-treatment 48 #3” value was found to be 0.
Regarding RYLDLFTSF, the “modulation upon carfilzomib-treatment 24 #1” value was −1, the “modulation upon carfilzomib-treatment 24 #2” value is reported as −1, the “modulation upon carfilzomib-treatment 24 #3” value is reported as −1 and the “modulation upon carfilzomib-treatment 48 #1” value came out at 0. The “modulation upon carfilzomib-treatment 48 #2” value is given as −1 and the “modulation upon carfilzomib-treatment 48 #3” value is −1.
In the case of RPHGGKSL, the “modulation upon carfilzomib-treatment 24 #1” value was found to be 0, the “modulation upon carfilzomib-treatment 24 #2” value stood at 0, the “modulation upon carfilzomib-treatment 24 #3” value was 0 and the “modulation upon carfilzomib-treatment 48 #1” value amounted to 0. Further, the “modulation upon carfilzomib-treatment 48 #2” value amounted to 0 and the “modulation upon carfilzomib-treatment 48 #3” value is given as 0.
“EYGHIPSF (listed as Homo sapiens) [SEQ ID NO: 42]”: under setting [1], the “biological replicates with significant up-modulation” value is given as 2/3 and the “modulation of peptide presentation upon carfilzomib treatment” value is “significant up-modulation”.
With YVFPGVTRL, the “modulation upon carfilzomib-treatment 24 #1” value was found to be 0, the “modulation upon carfilzomib-treatment 24 #2” value is reported as 0, the “modulation upon carfilzomib-treatment 24 #3” value was 0 and the “modulation upon carfilzomib-treatment 48 #1” value is reported as −1. The “modulation upon carfilzomib-treatment 48 #2” value is reported as 0 and the “modulation upon carfilzomib-treatment 48 #3” value is reported as 0.
For the sequence VPLPPKGRVL, the “modulation upon carfilzomib-treatment 24 #1” value stood at 0, the “modulation upon carfilzomib-treatment 24 #2” value was found to be 0, the “modulation upon carfilzomib-treatment 24 #3” value is recorded as 0 and the “modulation upon carfilzomib-treatment 48 #1” value was determined as 0. The “modulation upon carfilzomib-treatment 48 #2” value was 0 and the “modulation upon carfilzomib-treatment 48 #3” value was 0.
Turning to RYSPVLSRF, the “modulation upon carfilzomib-treatment 24 #1” value was found to be 0, the “modulation upon carfilzomib-treatment 24 #2” value is listed as 0, the “modulation upon carfilzomib-treatment 24 #3” value is given as 0 and the “modulation upon carfilzomib-treatment 48 #1” value is 0. Moreover, the “modulation upon carfilzomib-treatment 48 #2” value is reported as 0 and the “modulation upon carfilzomib-treatment 48 #3” value was determined as 0.
